Tested on: Male Sprague-Dawley rats
Assay: Thermal pain assay (rodent hot plate model)
Format: in vivo
Conditions: rat, dose of 10 mg/kg, subcutaneous

Q: With `Cl.NC(=O)c1ccc2c(c1O)[C@]13CCN(CC4CCC4)[C@H](C2)[C@]1(O)CC[C@H](O)C3` [Compound C, (4bR,6S,8aS,9R)-11-(cyclobutylmethyl)-4,6,8a-trihydroxy-6,7,8,8a,9,10-hexahydro-5H-9,4b-(epiminoethano)phenanthrene-3-carboxamide] as the molecule, how does the “antinociceptive effect, hot plate” value read?
A: Its value is “no antinociceptive effect”.

Q: How did the “antinociceptive effect, hot plate” value turn out when `Cl.NC(=O)c1ccc2c(c1O)[C@]13CCN(CC4CCC4)[C@H](C2)[C@]1(O)CC[C@@H](O)C3` [Compound D, (4bR,6R,8aS,9R)-11-(cyclobutylmethyl)-4,6,8a-trihydroxy-6,7,8,8a,9,10-hexahydro-5H-9,4b-(epiminoethano)phenanthrene-3-carboxamide] was run?
A: Its value is “no antinociceptive effect”.
